According to US9949980B2, “Drugs to prevent HPV infection” (Wisconsin Alumni Research Foundation, priority 2008, dated 2018):
Like-named read-outs stand apart in the source and are kept apart here.

Legend:
HPV16 pseudoviruses = experiment: microbe, parasite or virus in culture; format: cell-based; details: Human papillomavirus 16, HEK-293T, 48 h
Experimental: (§1) FIG. 1. High throughout screen (HTS) for identifying inhibitors of HPV infection. Shown is a schematic showing basic steps in the HTS. […] Briefly, HPV16 pseudoviruses containing the SEAP reporter genes are analyzed for their ability to infect as judged by the levels of secreted alkaline phosphatase in the tissue culture supernatant (light grey arrows). Cell viability was assessed in parallel on the same wells (dark grey arrows). In the specific HTS carried out in this study, the compounds were added at 3 uM/1% DMSO final concentration (black arrow) 4 hours prior to infection.
(§2) After incubation at 37° C. for 24 hrs, 35 μL of media was removed. […] Cells were incubated at 37° C. for 48 hrs. 2.5 μL of media was collected for SEAP assay using a PHOSPHA-LIGHT chemiluminescent alkaline phosphatase assay (Applied Biosystems). Cell viability was determined using the CellTiter Glo Luminescent Cell Viability Assay™ (Promega).

in vitro = details: human, Viability (CelTiter Glow)
Experimental: as §1, §2

[1] = read-out: Infectivity (SEAP Activity), 3 μM HTS standard concentration, 293T cells, 48 hrs
[2] = read-out: Infectivity vs. viability, 3 μM HTS standard concentration, ratio infectivity/viability

| SMILES | activity at 3 µM (HPV16 pseudoviruses; [1]) | activity at 3 µM (HPV16 pseudoviruses; [2]) | viability at 52 h, 3 μM (in vitro) |
| --- | --- | --- | --- |
| COc1ccc(N(CC(=O)Nc2ccc(C(C)C)cc2)S(=O)(=O)c2ccccc2)cc1Cl [Compound 6186930, N~2~-(3-chloro-4-methoxyphenyl)-N~1~-(4-isopropylphenyl)-N~2~-(phenylsulfonyl)glycinamide] | 37.9% | 33.5% | 113% |
| O=C(Nc1ccc(Cl)c(Cl)c1)Nc1ccccc1C(=O)O [Compound 5963375, 2-({[(3,4-dichlorophenyl)amino]carbonyl}amino)benzoic acid] | 14.2% | 20.2% | – |
| O=C1NN(c2ccc(Cl)c(Cl)c2)C(=O)C1=Cc1ccc(Cl)c([N+](=O)[O-])c1 [Compound 5585119, 4-(4-chloro-3-nitrobenzylidene)-1-(3,4-dichlorophenyl)-3,5-pyrazolidinedione] | 54.4% | 50.5% | 108% |
| O=C1NC(=S)SC1=Cc1cc(Cl)c(OCc2ccccc2)c(Cl)c1 [Compound 6142367, 5-[4-(benzyloxy)-3,5-dichlorobenzylidene]-2-thioxo-1,3-thiazolidin-4-one] | 61.2% | 57.9% | 106% |
| CC1CCc2c(sc(NC(=O)c3ccccc3)c2C(N)=O)C1 (centres unmarked) [Compound 6239347, 2-(benzoylamino)-6-methyl-4,5,6,7-tetrahydro-1-benzothiophene-3-carboxamide] | 55.1% | 40.5% | 136% |
| O=C(Nc1ccc(Cl)cc1)Nc1ccc([N+](=O)[O-])cc1Br [Compound 5191771, N-(2-bromo-4-nitrophenyl)-N′-(4-chlorophenyl)urea] | 39.9% | 41.9% | 95.2% |
| O=C1NCCCC1c1n[nH]c(=S)n1Cc1ccccc1 (centres unmarked) [BTB 00471, 3-[4-(phenylmethyl)-5-sulfanylidene-1H-1,2,4-triazol-3-yl]piperidin-2-one] | 41% | 37.5% | 109% |
| O=C(Nc1sc2c(c1C(=O)NCCc1ccccc1)CCCCC2)c1ccccc1F [Compound 5794700, 2-[(2-fluorobenzoyl)amino]-N-(2-phenylethyl)-5,6,7,8-tetrahydro-4H-cyclohepta[b]thiophene-3-carboxamide] | 49.2% | 45.1% | 109% |
| Cc1ccc(S(=O)(=O)N(C)c2ccc(Br)cc2C(=O)c2ccccc2)cc1 [Compound 5867793, N-(2-benzoyl-4-bromophenyl)-N,4-dimethylbenzenesulfonamide] | 36.1% | 38% | 95% |
| CC(=NNC(N)=O)C1CC1(C)C(C)(C)C (centres unmarked) [Compound 5104160, 1-(2-tert-butyl-2-methylcyclopropyl)-1-ethanone semicarbazone] | 63% | 56.2% | 112% |
| Cc1ccnc(NS(=O)(=O)c2ccc(N3C(=O)c4ccccc4C3=O)cc2)n1 [Compound 5842264, 4-(1,3-dioxo-1,3-dihydro-2H-isoindol-2-yl)-N-(4-methyl-2-pyrimidinyl)benzenesulfonamide] | 67% | 59.6% | 113% |
| COC(=O)C1=C(C)NC2=C(C(=O)c3ccccc32)C1c1ccc(-c2ccccc2C(=O)O)o1 (centres unmarked) [Compound 6177037, 2-{5-[3-(methoxycarbonyl)-2-methyl-5-oxo-4,5-dihydro-1H-indeno[1,2-b]pyridin-4-yl]-2-furyl}benzoic acid] | 64% | 58.4% | 110% |
| CCOc1ccc(N(CC(=O)Nc2c(C)cccc2C)S(=O)(=O)c2ccc(SC)cc2)cc1 [Compound 5740080, N~1~-(2,6-dimethylphenyl)-N~2~-(4-ethoxyphenyl)-N~2~-{[4-(methylthio)phenyl]sulfonyl}glycinamide] | 42.2% | 40.7% | 104% |
| CC(C)(C)NC(=O)C=Cc1cc([N+](=O)[O-])ccc1Sc1ccc(C(F)(F)F)cn1 [BTB 09390, N1-(tert-butyl)-3-(5-nitro-2-{[5-(trifluoromethyl)-2-pyridyl]thio}phenyl)acrylamide] | 28.9% | 35.6% | 81.2% |
| O=C(Nc1ccccc1)Nc1nnc(COc2ccc(Cl)cc2)s1 [Compound 6072068, N-{5-[(4-chlorophenoxy)methyl]-1,3,4-thiadiazol-2-yl}-N′-phenylurea] | 54.5% | 48.8% | 112% |
| Cc1cccc(C=C2C(=O)NN(c3ccccc3)C2=O)c1 [Compound 6233808, 4-(3-methylbenzylidene)-1-phenyl-3,5-pyrazolidinedione] | 58.5% | 50.2% | 117% |

| SMILES | activity at 3 µM (HPV16 pseudoviruses; [1]) | activity at 3 µM (HPV16 pseudoviruses; [2]) | viability at 52 h, 3 μM (in vitro) |
| --- | --- | --- | --- |
| COc1cc(NC(=O)COc2ccccc2C)ccc1NC(=O)c1ccco1 [Compound 6113090, N-(2-methoxy-4-{[(2-methylphenoxy)acetyl]amino}phenyl)-2-furamide] | 55% | 51.9% | 106% |
| CC(c1ccccc1)c1nnc(NC(=O)Nc2ccc(Cl)cc2)s1 (centres unmarked) [Compound 6040256, N-(4-chlorophenyl)-N′-[5-(1-phenylethyl)-1,3,4-thiadiazol-2-yl]urea] | 29.6% | 30.4% | 97.5% |
| Cc1ccc2nc3nc(C)cc(C)c3c(N)c2c1 [Compound 5947488, 2,4,7-trimethylbenzo[b]-1,8-naphthyridin-5-amine] | 34.6% | 51% | 68% |
| CC(=O)Oc1ccc(OC(C)=O)c2c1C1C=CC2CC1 [NRB 00571, 6-(acetyloxy)tricyclo[6.2.2.0~2,7~]dodeca-2(7),3,5,9-tetraen-3-yl acetate] | 49.3% | 45.5% | 108% |
| O=c1oc2c3c4c(cc2cc1CCO)CCCN4CCC3 [Compound 6105180, 10-(2-hydroxyethyl)-2,3,6,7-tetrahydro-1H,5H,11H-pyrano[2,3-f]pyrido[3,2,1-ij]quinolin-11-one] | 56.9% | 49.5% | 115% |
| O=[N+]([O-])c1cc(-n2ncnc2-c2ccc3c(c2)OCO3)ccc1F [Compound 6033199, 5-(1,3-benzodioxol-5-yl)-1-(4-fluoro-3-nitrophenyl)-1H-1,2,4-triazole] | 50.6% | 47.9% | 106% |
| Cc1ccc(OCc2nnc(NC(=O)Nc3ccc(Cl)c(Cl)c3)s2)cc1 [Compound 6070527, N-(3,4-dichlorophenyl)-N′-{5-[(4-methylphenoxy)methyl]-1,3,4-thiadiazol-2-yl}urea] | 41.8% | 39.8% | 105% |
| Cc1ccc(-c2cc(N)n(Cc3ccc(Cl)cc3)n2)cc1 [Compound 6077076, 1-(4-chlorobenzyl)-3-(4-methylphenyl)-1H-pyrazol-5-amine] | 20.9% | 28.1% | 74.4% |
| COc1cc(C=C2C(=O)NN(c3ccc(Cl)c(Cl)c3)C2=O)c([N+](=O)[O-])cc1OC [Compound 5581710, 1-(3,4-dichlorophenyl)-4-(4,5-dimethoxy-2-nitrobenzylidene)-3,5-pyrazolidinedione] | 23.9% | 31.9% | 75.1% |
| CCNS(=O)(=O)c1ccc(-c2oc3cc(S(=O)(=O)NCC)ccc3c2Cl)cc1 [NRB 00942, 3-chloro-N-ethyl-2-[4-(ethylsulfamoyl)phenyl]-1-benzofuran-6-sulfonamide] | 37.7% | 37.8% | 99.7% |
| COc1ccccc1CC(N)=NOC(=O)COc1ccc(C)cc1 [Compound 6084167, 2-(2-methoxyphenyl)-N′-{[(4-methylphenoxy)acetyl]oxy}ethanimidamide] | 53.8% | 47.2% | 114% |
| Cc1ccc(NC(=O)Cc2ccc(F)cc2)cc1 [Compound 5585700, 2-(4-fluorophenyl)-N-(4-methylphenyl)acetamide] | 55.4% | 52.5% | 105% |
| CCOC(=O)[C@H]1C(=O)c2ccccc2C(=O)/C1=C/c1ccc(CC)cc1 [Compound 5860904, ethyl (2R,3E)-3-[(4-ethylphenyl)methylidene]-1,4-dioxonaphthalene-2-carboxylate] | 21.9% | 33.2% | 66% |
| COc1cc(C=C2SC(=S)NC2=O)cc(Cl)c1OC(C)C [Compound 5868253, 5-(3-chloro-4-isopropoxy-5-methoxybenzylidene)-2-thioxo-1,3-thiazolidin-4-one] | 4.97% | 7.45% | 66.8% |
| Cc1ccc2cc(C3CC(c4ccc(Br)cc4)=NN3C(=O)CCC(=O)O)c(=O)[nH]c2c1 (centres unmarked) [Compound 5976736, 4-[3-(4-bromophenyl)-5-(7-methyl-2-oxo-1,2-dihydro-3-quinolinyl)-4,5-dihydro-1H-pyrazol-1-yl]-4-oxobutanoic acid] | 42.2% | 40.2% | 105% |
| NC(=O)NC(c1ccccc1)c1ccccc1Br (centres unmarked) [Compound 5571356, N-[(2-bromophenyl)(phenyl)methyl]urea] | 59.1% | 56% | 106% |
